Experimental data reported in the NIST ThermoML archive (doi:10.1021/je049609w).

Key:
[1] = xn = mol fraction of the nth substance listed; details: 101 kPa, Liquid
[2] = refractive index (Na D-line) (dimensionless); xn = mol fraction of the nth substance listed; details: 101 kPa, Liquid

Clc1ccccc1Cl [1,2-dichlorobenzene] + C1COCCO1
Details	mass density, 298.15 K [kg/m3]	mass density, 303.15 K [kg/m3]	mass density, 308.15 K [kg/m3]	refractive index, 298.15 K	refractive index, 303.15 K	refractive index, 308.15 K	speed of sound, 298.15 K [m/s]	viscosity, 298.15 K [mPa·s]	viscosity, 303.15 K [mPa·s]	viscosity, 308.15 K [mPa·s]
[1], x2 = 0	1300.9	1295.4	1289.7	–	–	–	1280	1.324	1.214	1.105
[1], x2 = 0.1025	1278.5	1272.9	1267.3	–	–	–	1287	1.311	1.203	1.095
[1], x2 = 0.203	1255.8	1250.1	1244.5	–	–	–	1293	1.298	1.191	1.085
[1], x2 = 0.2983	1232.9	1227.3	1221.6	–	–	–	1299	1.285	1.181	1.076
[1], x2 = 0.3965	1208.5	1202.8	1197.1	–	–	–	1305	1.273	1.169	1.066
[1], x2 = 0.4955	1182.5	1176.9	1171.2	–	–	–	1312	1.26	1.158	1.056
[1], x2 = 0.596	1154.9	1149.3	1143.6	–	–	–	1319	1.247	1.147	1.047
[1], x2 = 0.6976	1125.6	1120	1114.3	–	–	–	1325	1.234	1.135	1.037
[1], x2 = 0.7992	1094.7	1089.1	1083.4	–	–	–	1332	1.221	1.124	1.027
[1], x2 = 0.8971	1063.3	1057.7	1051.9	–	–	–	1338	1.209	1.113	1.018
[2], x2 = 0	–	–	–	1.5499	1.5476	1.545	–	–	–	–
[2], x2 = 0.1025	–	–	–	1.5374	1.5333	1.5325	–	–	–	–
[2], x2 = 0.203	–	–	–	1.5269	1.5246	1.5224	–	–	–	–
[2], x2 = 0.2983	–	–	–	1.5171	1.5148	1.5125	–	–	–	–
[2], x2 = 0.3965	–	–	–	1.5048	1.5023	1.4998	–	–	–	–
[2], x2 = 0.4955	–	–	–	1.4924	1.4902	1.4879	–	–	–	–
[2], x2 = 0.596	–	–	–	1.4799	1.4768	1.4738	–	–	–	–
[2], x2 = 0.6976	–	–	–	1.4652	1.4628	1.4604	–	–	–	–
[2], x2 = 0.7992	–	–	–	1.4513	1.4484	1.4455	–	–	–	–
[2], x2 = 0.8971	–	–	–	1.4365	1.4337	1.4308	–	–	–	–

C1COCCO1 [1,4-dioxane] + CC(=O)N(C)C
x1 = 1
Details	mass density, 298.15 K [kg/m3]	mass density, 303.15 K [kg/m3]	mass density, 308.15 K [kg/m3]	refractive index, 298.15 K	refractive index, 303.15 K	refractive index, 308.15 K	speed of sound, 298.15 K [m/s]	viscosity, 298.15 K [mPa·s]	viscosity, 303.15 K [mPa·s]	viscosity, 308.15 K [mPa·s]
[1]	1028.6	1022.9	1017.2	–	–	–	1345	1.196	1.095	1.008
[2]	–	–	–	1.4203	1.4164	1.4145	–	–	–	–

C1COCCO1 [1,4-dioxane] + CCCCO
Details	mass density, 298.15 K [kg/m3]	mass density, 303.15 K [kg/m3]	mass density, 308.15 K [kg/m3]	refractive index, 298.15 K	refractive index, 303.15 K	refractive index, 308.15 K	speed of sound, 298.15 K [m/s]	viscosity, 298.15 K [mPa·s]	viscosity, 303.15 K [mPa·s]	viscosity, 308.15 K [mPa·s]
[1], x1 = 0.1014	826.1	822.1	818.1	–	–	–	1249	2.15	1.926	1.703
[1], x1 = 0.2015	846.7	842.4	838.1	–	–	–	1260	1.757	1.602	1.447
[1], x1 = 0.2982	866.9	862.4	858	–	–	–	1270	1.489	1.347	1.204
[1], x1 = 0.3995	888.7	884	879.5	–	–	–	1281	1.327	1.196	1.066
[1], x1 = 0.4945	909.6	904.8	900.1	–	–	–	1291	1.241	1.13	1.03
[1], x1 = 0.5993	933.5	928.4	923.4	–	–	–	1301	1.177	1.081	0.985
[1], x1 = 0.7023	957.5	952.3	947.1	–	–	–	1310	1.153	1.063	0.972
[1], x1 = 0.802	981.1	975.8	970.4	–	–	–	1320	1.162	1.07	0.979
[1], x1 = 0.9017	1004.9	999.5	994	–	–	–	1332	1.17	1.078	0.986
[1], x1 = 1	1028.6	1022.9	1017.2	–	–	–	1345	1.196	1.095	1.008
[2], x1 = 0.1014	–	–	–	1.3999	1.3976	1.3952	–	–	–	–
[2], x1 = 0.2015	–	–	–	1.4016	1.3992	1.3968	–	–	–	–
[2], x1 = 0.2982	–	–	–	1.4032	1.4008	1.3984	–	–	–	–
[2], x1 = 0.3995	–	–	–	1.4052	1.4028	1.4003	–	–	–	–
[2], x1 = 0.4945	–	–	–	1.4071	1.4046	1.4022	–	–	–	–
[2], x1 = 0.5993	–	–	–	1.4095	1.4069	1.4044	–	–	–	–
[2], x1 = 0.7023	–	–	–	1.4119	1.4094	1.4068	–	–	–	–
[2], x1 = 0.802	–	–	–	1.4145	1.4118	1.4093	–	–	–	–
[2], x1 = 0.9017	–	–	–	1.4172	1.4145	1.4118	–	–	–	–
[2], x1 = 1	–	–	–	1.4203	1.4164	1.4145	–	–	–	–

C1COCCO1 [1,4-dioxane] + CCOC(=O)CC(=O)OCC
x1 = 1
Details	mass density, 298.15 K [kg/m3]	mass density, 303.15 K [kg/m3]	mass density, 308.15 K [kg/m3]	refractive index, 298.15 K	refractive index, 303.15 K	refractive index, 308.15 K	speed of sound, 298.15 K [m/s]	viscosity, 298.15 K [mPa·s]	viscosity, 303.15 K [mPa·s]	viscosity, 308.15 K [mPa·s]
[1]	1028.6	1022.9	1017.2	–	–	–	1345	1.196	1.095	1.008
[2]	–	–	–	1.4203	1.4164	1.4145	–	–	–	–
